# Target: T1, PltZ (Pseudomonas protegens, UniProt Q4KCY3)
# T1 construct: full-length, N-terminal 6xHis tag (pET28a), expressed in E. coli BL21 (DE3), Ni-NTA purified
# Experiment: isothermal titration calorimetry
# Type: binding
# T1 sequence (Q4KCY3 entry or part of it): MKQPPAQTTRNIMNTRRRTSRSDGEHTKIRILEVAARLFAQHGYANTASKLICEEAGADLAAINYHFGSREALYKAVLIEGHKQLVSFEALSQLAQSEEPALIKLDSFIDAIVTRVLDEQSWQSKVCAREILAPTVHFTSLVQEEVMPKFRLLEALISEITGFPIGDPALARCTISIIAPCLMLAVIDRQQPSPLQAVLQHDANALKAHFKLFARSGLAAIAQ
structure (smiles),measurement,value
O=C(c1cc(Cl)c(Cl)[nH]1)c1c(O)cccc1O [pyoluteorin],Kd,~13.2 nM

# — article PMC8305169, “Two Pathway-Specific Transcriptional Regulators, PltR and PltZ, Coordinate Autoinduction of Pyoluteorin in Pseudomonas protegens Pf-5” (Microorganisms, 2021)
